From US5478723A, “Method and apparatus for determining the role of cytochrome P450 and related enzymes in the metabolism of drugs and other chemicals” (priority 1993, dated 1995)
Entries after “also recorded” stand apart in the source; their conditions may differ.

Key:
cytochrome P450 = settings: in vivo; cited from earlier work
CYP2D6 = settings: cited from earlier work
CYP2D6 enzyme = settings: background or known; cited from earlier work
labor at term [1] = assay: Clinical trials of sparteine for inducing labor at term; type: in vivo, human; settings: of all Caucasians; expected from CYP2D6 deficiency
Description: The drug was not recommended for clinical use because these side effects were unpredictable and occurred at doses of […], which were well tolerated by other patients.

labor at term [2] = settings: cited from earlier work
[3] = administered with ketoconazole or erythromycin; cited from earlier work
CYP3A enzymes = settings: cited from earlier work
liver = settings: in vivo; cited from earlier work
CYP2A6 enzyme = settings: cited from earlier work
CYP2CMp = settings: in vivo; cited from earlier work
CYP1A2 enzyme = settings: known; cited from earlier work

CCC1(c2ccccc2)C(=O)NC(=O)NC1=O [phenobarbital]
effect on cytochrome P450 activity (cytochrome P450): increase cytochrome P450 activity | effect on metabolism of contraceptive steroids (cytochrome P450): increased rate of metabolism of contraceptive steroids

N=C(N)N1CCc2ccccc2C1 [debrisoquine]
poor metabolizers among Caucasians (CYP2D6; Caucasians): 5-10% | enzyme which metabolizes the drug (CYP2D6; in vivo): metabolized by CYP2D6

COc1ccc2c(c1)[C@]13CCCC[C@@H]1[C@H](C2)N(C)CC3 (stereo in doubt) [dextromethorphan]
enzyme which metabolizes the drug (CYP2D6 enzyme): metabolized by the CYP2D6 enzyme

C1CCN2C[C@@H]3C[C@@H](CN4CCCC[C@@H]34)[C@H]2C1 [sparteine]
expected poor metabolizers (labor at term [1]): 5-10% | potency for inducing labor at term (labor at term [2]; clinical trials, United States, late 1950's): as potent as oxytocin | patients with dramatically increased duration and intensity of action (labor at term [2]; of all patients tested): about 7% | patients with exaggerated response (labor at term [2]; patients administered during clinical trials): 7% | side effects (exaggerated response) (labor at term [2]; some patients): prolonged uterine contraction and abnormally rapid labor; also recorded: caused death of the fetus

CC(C)(C)c1ccc(C(O)CCCN2CCC(C(O)(c3ccccc3)c3ccccc3)CC2)cc1 (stereo not drawn) [terfenadine]
cardiac adverse reaction [3]: Torsades de Points

CC(=O)N1CCN(c2ccc(OCC3COC(Cn4ccnc4)(c4ccc(Cl)cc4Cl)O3)cc2)CC1 (stereo not drawn) [ketoconazole]
inhibition of CYP3A enzymes (CYP3A enzymes): potent inhibitors of the CYP3A enzymes

CO[C@H]1/C=C/O[C@@]2(C)Oc3c(C)c(O)c4c(O)c(c(/C=N/N5CCN(C)CC5)c(O)c4c3C2=O)NC(=O)/C(C)=C\C=C\[C@H](C)[C@H](O)[C@@H](C)[C@@H](O)[C@@H](C)[C@H](OC(C)=O)[C@@H]1C [rifampin]
effect on cytochrome P450 activity (cytochrome P450): increase cytochrome P450 activity | effect on metabolism of contraceptive steroids (cytochrome P450): increased rate of metabolism of contraceptive steroids

CC(=O)Nc1ccc(O)cc1 [acetaminophen]
origin of liver toxicity (liver): due to a toxic metabolite that is generated by cytochrome P450

O=c1ccc2ccccc2o1 [coumarin]
enzyme which metabolizes the drug (CYP2A6 enzyme): metabolized by the CYP2A6 enzyme

CCC1(c2ccccc2)NC(=O)N(C)C1=O (stereo not drawn) [Mephenytoin]
enzyme which metabolizes the drug (CYP2CMp): metabolized by CYP2CMp

CN/C(=N/CCSCc1nc[nH]c1C)NC#N [cimetidine]
effect on cytochrome P450 activity (cytochrome P450): depresses P450 activity

Cn1c(=O)c2c(ncn2C)n(C)c1=O [caffeine]
enzyme which metabolizes the drug (CYP1A2 enzyme): metabolized by the CYP1A2 enzyme

CC[C@@]1(c2ccccc2)NC(=O)N(C)C1=O [S-mephenytoin]
poor metabolizers among Caucasians (CYP2CMp): less than 5% | poor metabolizers among Japanese subjects (CYP2CMp): about 20%
